Assay results published in US12187722B2, “Small molecule inhibitors of TEAD transcription factors” (The General Hospital Corporation, priority 2019, dated 2025).

Target: TEAD2 (Homo sapiens (Human), UniProt Q15562)
Test: In vitro palmitoylation (TEAD2 autopalmitoylation, streptavidin blot)
Assay type: biochemical
Conditions: compound at 10 μM
Procedure: Recombinant GST-TEAD2 or His6TEAD2 (500 ng) protein was pre-incubated with the compounds at indicated concentrations for 15 min. and then incubated with 1 μM of alkyne palmitoyl-5 CoA (Cayman Chemical) for 30 min or 50 mM MES, pH 6.4, followed by Click reaction with biotin-azide as previously described (Zheng, B. et al., J. Am. Chem. Soc., 2013, 135, 7082-7085). Click reaction was performed with 100 μM biotin-azide, 1 mM tris(2-carboxyethyl) phosphine hydrochloride (TCEP), 100 μM tris[(1-benzyl-1H-1,2,3-triazol-4-yl) methyl] amine (TBTA) and 1 mM CuSO4 for 1 h at RT.
The reactions were terminated by the addition of 12 μL of 6×SDS-sample loading buffer (50 mM Tris-HCl, pH 6.8, 6% SDS, 48% Glycerol, 0.03% Bromophenol Blue, 30 mM EDTA, 9% MeSH). Samples were analysed by SDS-PAGE and Western blot was performed by probing with streptavidin HRP and histidine HRP antibodies independently. Bands intensity obtained from streptavidin blot were quantified using BIORAD, Gel doc system and the percentage of inhibition of Tead2 auto palmitoylation is determined by comparing to the DMSO control treated samples.
These compounds were tested for activity in inhibiting TEAD2 palmitoylation in the assay described above.

TEAD2, sequence (Q15562 whole entry): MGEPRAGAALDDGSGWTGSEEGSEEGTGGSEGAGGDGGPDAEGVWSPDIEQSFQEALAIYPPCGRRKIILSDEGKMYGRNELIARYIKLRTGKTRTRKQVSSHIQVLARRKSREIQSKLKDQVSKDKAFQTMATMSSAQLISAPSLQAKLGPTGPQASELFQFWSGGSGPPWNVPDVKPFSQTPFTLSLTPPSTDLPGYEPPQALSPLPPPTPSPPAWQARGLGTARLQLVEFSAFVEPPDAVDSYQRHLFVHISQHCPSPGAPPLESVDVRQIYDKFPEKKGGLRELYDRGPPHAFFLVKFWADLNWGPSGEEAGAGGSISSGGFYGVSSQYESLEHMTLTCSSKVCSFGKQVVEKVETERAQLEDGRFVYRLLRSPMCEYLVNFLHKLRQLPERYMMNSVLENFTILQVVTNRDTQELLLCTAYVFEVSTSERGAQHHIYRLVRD

With `O=C(O)C1CCCC1Nc1ccc(Nc2ccc(C34CC5CC(CC(C5)C3)C4)cc2Cl)cc1` (stereo not drawn) [Compound 40] the “% of inhibition of TEAD2 palmitoylation at 10 μM” value (Table 2) was 43%.
Work on `O=C(O)c1cccc(Nc2ccc(S(=O)(=O)Nc3ccc(C45CC6CC(CC(C6)C4)C5)cc3)cc2)n1` [Compound 194] yielded an inhibition at 10 µM (Table 2) of 20%.
For `O=C(O)c1cccc(Nc2cc(Nc3ccc(C4CCCCC4)cc3Cl)cc(C(F)(F)F)c2)n1` [CP-660], the inhibition at 10 µM (Table 3) was 66%.
`O=C(O)c1cccnc1Oc1ccc(Nc2ccc(C34CC5CC(CC(C5)C3)C4)cc2Cl)cc1` [Compound 136] was tested, and the inhibition at 10 µM (Table 2) was 99%.
Work on `O=C(O)C1CCNCC1Nc1ccc(Nc2ccc(C34CC5CC(CC(C5)C3)C4)cc2Cl)cc1` (stereo not drawn) [Compound 88] yielded an inhibition at 10 µM (Table 2) of 12%.
`CNS(=O)(=O)c1cccc(Nc2ccc(Nc3ccc(C45CC6CC(CC(C6)C4)C5)cc3Cl)cc2)n1` [CP-694] gave an inhibition at 10 µM (Table 3) of 79%.
`COc1ccc(Nc2ccc(N(C)c3ccc(S(F)(F)(F)(F)F)cc3)nc2)c(C(=O)O)c1` [CP-595] was tested, and the inhibition at 10 µM (Table 3) was 51%.
`COc1ccc(Nc2ccc(Oc3ccc(C(F)F)cc3Cl)cc2)c(C(=O)O)c1` [CP-575] showed an inhibition at 10 µM (Table 3) of 47%.
In the case of `O=C(O)c1cncc(Nc2ccc(Nc3ccc(C45CC6CC(CC(C6)C4)C5)cc3Cl)cc2)n1` [Compound 115], the inhibition at 10 µM (Table 2) is reported as 67%.
`O=C(NC12CC3CC(CC(C3)C1)C2)c1ccc(Nc2ccc(Nc3cccc(C(=O)O)n3)cc2)cc1` [Compound 219] showed an inhibition at 10 µM (Table 2) of 0%.
`COC(=O)c1ccccc1Nc1ccc(C(=O)Nc2ccc(C34CC5CC(CC(C5)C3)C4)cc2Br)cc1` [Compound 5] gave an inhibition at 10 µM (Table 2) of 0%.
With `O=C(Nc1ccccc1C(=O)O)c1ccc(Oc2ccc(C34CC5CC(CC(C5)C3)C4)cc2)cc1` [Compound 237] the inhibition at 10 µM (Table 2) was 93%.
In the case of `COc1ccc(Nc2ccc(N(C)c3ccc(C(F)(F)F)c(Cl)c3)cc2)c(C(=O)O)c1` [CP-617], the inhibition at 10 µM (Table 3) is reported as 76%.
In the case of `O=C(Nc1ccc(C23CC4CC(CC(C4)C2)C3)cc1)c1cccc(Nc2ccccc2C(=O)O)c1` [Compound 214], the “% of inhibition of TEAD2 palmitoylation at 10 μM” value (Table 2) is reported as 73% and the inhibition at 10 µM (Table 2) is reported as 88%.
In the case of `O=C(O)c1ccccc1Nc1ccnc(Nc2ccc(C34CC5CC(CC(C5)C3)C4)cc2Cl)n1` [Compound 62], the inhibition at 10 µM (Table 2) is reported as 65%.
With `O=C(O)c1cccc(Nc2ccc(Nc3ccc(C45CC6CC(CC(C6)C4)C5)cc3Cl)cc2)c1` [Compound 84] the inhibition at 10 µM (Table 2) was 98%.
Work on `COc1ccc(Nc2ccc(C3CC3)cc2N(C)c2ccc(C3CCCCC3)cc2)c(C(=O)O)c1` [CP-623] yielded an inhibition at 10 µM (Table 3) of 73%.
`COc1ccc(Nc2ccc(N(C)c3ccc(C(F)(F)F)cc3)cc2)c(C(=O)N(C)C)c1` [CP-607] was tested, and the inhibition at 10 µM (Table 3) was 37%.
In the case of `COc1ccc(Nc2ccc(N(C)c3ccc(C(F)(F)F)cc3)cc2C)c(C(=O)O)c1` [CP-563], the inhibition at 10 µM (Table 3) is reported as 80%.
Work on `O=C(O)c1cncn1Cc1cccc(Nc2ccc(C34CC5CC(CC(C5)C3)C4)cc2Cl)c1` [Compound 128] yielded an inhibition at 10 µM (Table 2) of 92%.
`CNS(=O)(=O)c1ccc(Nc2ccc(N(C)c3ccc(C4CCCCC4)cc3Cl)cc2C)c(C(=O)O)c1` [CP-671] showed an inhibition at 10 µM (Table 3) of 97%.
`N#Cc1cccc(Nc2ccc(Nc3ccc(C45CC6CC(CC(C6)C4)C5)cc3Cl)cc2)n1` [CP-688] gave an inhibition at 10 µM (Table 3) of 17%.
Molecule `CC(C)c1ccccc1-c1ccc(Oc2ccc(N(C)c3ccccc3C(=O)O)cc2)c(Cl)c1` [Compound 236] has an inhibition at 10 µM (Table 2) of 62%.
In the case of `O=C(O)c1cccc(Nc2cc(Nc3ccc(C4CCCCC4)cc3)cc(C(F)(F)F)c2)n1` [CP-641], the inhibition at 10 µM (Table 3) is reported as 69%.
In the case of `O=C(NC12CC3CC(CC(C3)C1)C2)c1ccc(Nc2ccc(Nc3ccccc3C(=O)O)cc2)cc1` [Compound 98], the inhibition at 10 µM (Table 2) is reported as 89%.
Work on `COc1ccc(Nc2ccc(N(C)c3ccc(C(F)(F)F)cn3)cc2)c(C(=O)O)c1` [CP-576] yielded an inhibition at 10 µM (Table 3) of 42%.
`CN(c1ccc(N2CC(Oc3ccc(C45CC6CC(CC(C6)C4)C5)cc3)C2)cc1)c1ccccc1C(=O)O` [Compound 200] was tested, and the inhibition at 10 µM (Table 2) was 32%.
Work on `Cc1cc(N(C)c2ccc(C3CCCCC3)cc2)ccc1Nc1ccc(OC(F)(F)F)cc1C(=O)O` [CP-580] yielded an inhibition at 10 µM (Table 3) of 58%.
For `CN(c1ccc(C23CC4CC(CC(C4)C2)C3)cc1)S(=O)(=O)c1ccc(Nc2ncccc2C(=O)O)cc1` [Compound 207], the inhibition at 10 µM (Table 2) was 99%.
Molecule `CC(C)(C)OC(=O)NC(Cc1ccc(Nc2ccc(C34CC5CC(CC(C5)C3)C4)cc2Cl)cc1)C(=O)O` (stereo not drawn) [Compound 94] has an inhibition at 10 µM (Table 2) of 91%.
Molecule `O=C(O)c1cccnc1Nc1cn(Cc2ccc(C34CC5CC(CC(C5)C3)C4)cc2Cl)cn1` [Compound 134] has an inhibition at 10 µM (Table 2) of 0%.
`O=C(O)c1cccc(Nc2cccc(Nc3ccc(C45CC6CC(CC(C6)C4)C5)cc3Cl)c2)n1` [Compound 150] was tested, and the inhibition at 10 µM (Table 2) was 100%.
`COC(=O)c1ccccc1Nc1cccc(Nc2ccc(C34CC5CC(CC(C5)C3)C4)cc2)c1` [Compound 1] was tested, and the inhibition at 10 µM (Table 2) was 10%.
`COc1cccc(N(C)c2ccc(N(C)c3ccc(C45CC6CC(CC(C6)C4)C5)cc3)cc2)c1C(=O)O` [Compound 238] showed an inhibition at 10 µM (Table 2) of 100%.
For `O=C(O)c1cc(C(F)(F)F)ccc1Nc1cc(Nc2ccc(C34CC5CC(CC(C5)C3)C4)cc2)cc(C(F)(F)F)c1` [Compound 29], the inhibition at 10 µM (Table 2) was 90%.
Molecule `O=C(Nc1ccc(Nc2ncccc2C(=O)O)cc1)Nc1ccc(C23CC4CC(CC(C4)C2)C3)cc1` [Compound 180] has an inhibition at 10 µM (Table 2) of 81%.
`O=C(O)c1ccccc1Nc1cnc(Oc2ccc(C3CCCCC3)cc2Cl)cn1` [CP-559] showed an inhibition at 10 µM (Table 3) of 79%.
`COc1ccc(Nc2ccc(N(C)c3ccc(Cl)cc3Cl)cc2)c(C(=O)O)c1` [CP-542] was tested, and the inhibition at 10 µM (Table 3) was 49%.
Molecule `COc1ccc(Nc2ccc(Oc3ccc(C(F)(F)F)cc3Cl)cc2)c(C(=O)O)c1` [CP-544] has an inhibition at 10 µM (Table 3) of 98%.
`O=C(O)c1ccccc1Nc1cc(Nc2ccc(C34CC5CC(CC(C5)C3)C4)cc2Cl)cc(C(F)(F)F)c1` [Compound 33] was tested, and the inhibition at 10 µM (Table 2) was 50%.
Molecule `O=C(Nc1ccc(C23CC4CC(CC(C4)C2)C3)cc1)c1ccc2nc[nH]c2c1` has an inhibition at 10 µM of 5%.
`O=C(O)c1cnn(Cc2ccc(Nc3ccc(C45CC6CC(CC(C6)C4)C5)cc3Cl)cc2)c1` [Compound 121] was tested, and the inhibition at 10 µM (Table 2) was 80%.
In the case of `COCCOc1ccc(Nc2ccc(N(C)c3ccc(C45CC6CC(CC(C6)C4)C5)cc3)cc2)c(C(=O)O)c1` [Compound 269], the inhibition at 10 µM (Table 2) is reported as 100%.
`CCCCN(CCCC)Cc1ccc(Nc2ccc(Nc3ccccc3C(=O)O)cc2)cc1` [Compound 169] gave an inhibition at 10 µM (Table 2) of 42%.
For `O=C(O)Cn1ccc2ccc(Nc3ccc(C45CC6CC(CC(C6)C4)C5)cc3Cl)cc21` [Compound 126], the inhibition at 10 µM (Table 2) was 86%.
For `N#Cc1cc(Nc2ccc(C34CC5CC(CC(C5)C3)C4)cc2)ccc1Nc1ccccc1C(=O)O`, the inhibition at 10 µM was 80%.
`COc1ccc(Nc2ccc(N(C)c3ccc(C4CCC(C(F)(F)F)CC4)cc3)cc2)c(C(=O)O)c1` (stereo not drawn) [CP-603] gave an inhibition at 10 µM (Table 3) of 83%.
`CC(C)c1ccccc1-c1ccc(NC(=O)CC2CN(C(=O)OC(C)(C)C)C2)cc1` showed an inhibition at 10 µM of 100%.
`COc1ccc(Nc2cnc(N(C)c3ccc(C4CCCCC4)cc3)cc2C)c(C(=O)O)c1` [CP-609] showed an inhibition at 10 µM (Table 3) of 54%.
`CC12CC3CC(C)(C1)CC(c1ccc(NS(=O)(=O)c4ccc(Nc5ccccc5C(=O)O)cc4)c(Cl)c1)(C3)C2` [Compound 264] showed an inhibition at 10 µM (Table 2) of 0%.
With `O=C(O)Cn1cc2cc(Nc3ccc(C45CC6CC(CC(C6)C4)C5)cc3Cl)ccc2n1` [Compound 110] the inhibition at 10 µM (Table 2) was 85%.
`CN(c1ccc(N2CCN(c3ccc(C45CC6CC(CC(C6)C4)C5)cc3)CC2)cc1)c1ccccc1C(=O)O` [Compound 218] was tested, and the inhibition at 10 µM (Table 2) was 0%.
Work on `O=C(O)c1ccccc1Nc1ncc(Nc2ccc(C34CC5CC(CC(C5)C3)C4)cc2Cl)cn1` [compound 284] yielded an inhibition at 10 µM (Table 2) of 14%.
